Data set [1] concerns bacteria, fungi and protozoa. To be noted: cited from earlier work.
In data set [2] the test system is chick embryo vitelline capillaries. Put plainly: chick embryo vitelline capillary regression assay. Format: in vivo. Details: key to vitelline capillary regression: +: Vascular reactivity; 0: No vascular reactivity; +/-: Equivocal reactivity. To be noted: for vitelline capillary regression: 60 minutes. The method in brief: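 Compounds applied to 3- to 5-day chick embryos in 0.1 ml of 15% Ficol 400 in PBS. Regression of vitelline capillaries, seen as pinching-off of capillary loops into enclosed sacs, was scored visually after 60 minutes.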

The next data set deals with rabbit NHE3 (Oryctolagus cuniculus, UniProt P26432). The following applies: 5 μg/ml.
The test system of a further data set is human melanoma 1205Lu. Put plainly: growth of human melanoma 1205Lu in immunocompromised RAG-1 mice. The data set is classed as in vivo, RAG-1 mice (human tumor). The text has this:
As apparent from FIG. 5, melanoma 1205Lu develops aggressively in RAG-1 mice after implantation.

Structures are written as SMILES.

Chain of rabbit NHE3 (P26432 30-832): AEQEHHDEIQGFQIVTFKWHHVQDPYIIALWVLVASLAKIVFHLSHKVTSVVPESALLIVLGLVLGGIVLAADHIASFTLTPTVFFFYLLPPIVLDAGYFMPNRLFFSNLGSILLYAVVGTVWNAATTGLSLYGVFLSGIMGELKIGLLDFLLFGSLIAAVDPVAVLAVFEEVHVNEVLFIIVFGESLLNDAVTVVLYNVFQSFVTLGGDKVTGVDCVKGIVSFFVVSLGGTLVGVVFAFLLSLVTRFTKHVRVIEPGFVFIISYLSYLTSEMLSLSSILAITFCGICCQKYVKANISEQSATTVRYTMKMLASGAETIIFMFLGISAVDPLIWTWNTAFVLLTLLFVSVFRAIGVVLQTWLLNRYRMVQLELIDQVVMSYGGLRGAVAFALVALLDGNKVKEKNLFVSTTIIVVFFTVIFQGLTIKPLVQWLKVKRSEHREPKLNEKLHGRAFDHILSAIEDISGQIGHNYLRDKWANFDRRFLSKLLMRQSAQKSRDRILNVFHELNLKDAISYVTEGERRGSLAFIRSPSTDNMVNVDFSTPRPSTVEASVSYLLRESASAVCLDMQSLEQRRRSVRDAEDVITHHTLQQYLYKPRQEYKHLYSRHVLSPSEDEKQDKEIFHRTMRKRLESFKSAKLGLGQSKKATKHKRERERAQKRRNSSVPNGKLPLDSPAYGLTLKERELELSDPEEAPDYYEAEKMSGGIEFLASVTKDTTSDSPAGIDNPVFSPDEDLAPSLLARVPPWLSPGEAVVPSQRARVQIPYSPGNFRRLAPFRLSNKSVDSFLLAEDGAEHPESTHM
Method for rabbit NHE3: Internal pH was measured either following acid loading or in the absence of an acid-loading challenge, with the results shown in FIGS. 1A and 1B.
Specifically, PS120 fibroblasts transfected with rabbit NHE3 were grown in supplemented Dulbecco's-modified Eagle's medium as described by Levine et al., J. Biol. Chem. 268, 1993, 25527-25535. […] For cells not acid-preloaded, the actual internal pH value was monitored as a function of time following addition of squalamine, with the results depicted in FIG. 1B.
PS120 fibroblasts transfected with rabbit NHE3 were grown and acid preloaded by exposure to 40 mM NH4 Cl as described above in conjunction with FIGS. 1A and 1B. Internal cellular pH changes expressed as the rate of pH recovery as a function of restored extracellular sodium ion concentration following exposure to 10 μg/ml of the compound were assayed with the fluorescent dye BCECF-AM as described above.

Regarding `CC(C)[C@@H](CC[C@@H](C)[C@H]1CC[C@H]2[C@@H]3[C@H](O)C[C@H]4C[C@@H](NCCCNCCCCN)CC[C@]4(C)[C@H]3CC[C@]12C)OS(=O)(=O)O` [Squalamine, squalamine], the antibiotic activity entry in data set [1] was “broad-spectrum antibiotic, killing bacteria, fungi and protozoa”. Moreover, the vitelline capillary regression in data set [2] (0.001 μg applied) is given as 0; in data set [2] (0.01 μg applied), “+”; in data set [2] (0.1 μg applied), “+”; in data set [2] (1 μg applied), “+”; in data set [2] (10 μg applied) it was “+”. Further, in data set [2] (0.1 ml in 15% Ficol in PBS), the hemolysis result is “absence of hemolysis”. Further, the hemorrhage entry in data set [2] (0.1 ml in 15% Ficol in PBS) is “No hemorrhage was seen”. In data set [2] (0.1 ml in 15% Ficol in PBS), the “lag period before vessel constriction” value is “around 15 minutes”. Further, the “activity in vitelline capillary regression assay (in words)” value in data set [2] (in vivo) is given as “especially active”. Besides, the “effect on chick embryo vitelline capillaries (in words)” value in data set [2] (in vivo) is recorded as “found to disrupt vitelline capillaries in 3- to 5-day chick embryos”. The “inhibition of NHE3” value at rabbit NHE3 (acid-preloaded by 40 mM NH4Cl) is “inhibited NHE3 with respect to proton concentration at both Km and Vmax levels”. In addition, the “resting pH” value on rabbit NHE3 (cells not acid-preloaded) is “the resting pH of these cells was also inhibited”. Moreover, the “suppression of melanoma 1205Lu growth” value in the data set with human melanoma 1205Lu (10, 20, 40 mg/kg/d, after tumors reached about 0.1 ml) is on record as “found to suppress the growth of melanoma 1205Lu in RAG-1 mice in a dose-dependent fashion”. For the same compound, the “tumor growth after cessation of treatment” value with human melanoma 1205Lu (in vivo) was “tumor growth continued at a rate similar to untreated controls”.
